{
  "source": "ChEMBL document CHEMBL1201862",
  "about": "“PubChem BioAssay data set” (2004)",
  "key": {"Streptococcus": {"test_system": "Streptococcus", "test": "GAS UMAA2166 growth inhibition – luminescence, BacTiterGlo, counter-screen for streptokinase expression inhibitor project, dose response (AID 1915);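 also: potency for reduction of bacterial viability or growth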", "format": "functional, organism-based"}, "BJ": {"test_system": "BJ", "test": "BJ-TERT-LT-ST fibroblast viability loss – cell-based, RAS-independent, luminescence, dose response (AID 1935);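 also: BJ fibroblasts immortalized with TERT plus LT and ST oncogenes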", "format": "functional", "settings": "Homo sapiens"}, "[1]": {"test": "Trypanosoma cruzi growth suppression in host cells – NIH3T3 host cells, beta-gal luminescence, confirmation (AID 2044);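 also: intracellular parasites grown in NIH/3T3 mouse fibroblasts as host cells; luminescent beta-galactosidase reporter signal from transgenic T. cruzi replicating inside host cells; inhibitors lower the luminescence signal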", "format": "functional, cell-based"}, "[2]": {"test": "NIH3T3 cell viability loss – ATP luminescence, mouse fibroblasts, counter-screen, dose response (AID 2010);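 also: cells exposed to compound for about 90 hours before reading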", "format": "functional, cell-based"}, "Caspase-3": {"molecular_target": "T1, Caspase-3 (Homo sapiens, UniProt P42574)", "T1 sequence (P42574 whole entry)": "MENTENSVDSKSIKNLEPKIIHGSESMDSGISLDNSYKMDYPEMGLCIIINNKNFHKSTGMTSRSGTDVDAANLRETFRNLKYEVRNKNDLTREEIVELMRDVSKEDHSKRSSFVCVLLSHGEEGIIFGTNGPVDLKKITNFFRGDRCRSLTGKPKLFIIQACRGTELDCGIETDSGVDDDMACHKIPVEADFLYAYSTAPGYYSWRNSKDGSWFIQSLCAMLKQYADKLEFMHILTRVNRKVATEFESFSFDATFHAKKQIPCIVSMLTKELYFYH", "format": "functional"}, "[3]": {"molecular_target": "T2, Sentrin-specific protease 7 (Homo sapiens, UniProt Q9BQF6)", "T2 sequence (Q9BQF6 whole entry)": "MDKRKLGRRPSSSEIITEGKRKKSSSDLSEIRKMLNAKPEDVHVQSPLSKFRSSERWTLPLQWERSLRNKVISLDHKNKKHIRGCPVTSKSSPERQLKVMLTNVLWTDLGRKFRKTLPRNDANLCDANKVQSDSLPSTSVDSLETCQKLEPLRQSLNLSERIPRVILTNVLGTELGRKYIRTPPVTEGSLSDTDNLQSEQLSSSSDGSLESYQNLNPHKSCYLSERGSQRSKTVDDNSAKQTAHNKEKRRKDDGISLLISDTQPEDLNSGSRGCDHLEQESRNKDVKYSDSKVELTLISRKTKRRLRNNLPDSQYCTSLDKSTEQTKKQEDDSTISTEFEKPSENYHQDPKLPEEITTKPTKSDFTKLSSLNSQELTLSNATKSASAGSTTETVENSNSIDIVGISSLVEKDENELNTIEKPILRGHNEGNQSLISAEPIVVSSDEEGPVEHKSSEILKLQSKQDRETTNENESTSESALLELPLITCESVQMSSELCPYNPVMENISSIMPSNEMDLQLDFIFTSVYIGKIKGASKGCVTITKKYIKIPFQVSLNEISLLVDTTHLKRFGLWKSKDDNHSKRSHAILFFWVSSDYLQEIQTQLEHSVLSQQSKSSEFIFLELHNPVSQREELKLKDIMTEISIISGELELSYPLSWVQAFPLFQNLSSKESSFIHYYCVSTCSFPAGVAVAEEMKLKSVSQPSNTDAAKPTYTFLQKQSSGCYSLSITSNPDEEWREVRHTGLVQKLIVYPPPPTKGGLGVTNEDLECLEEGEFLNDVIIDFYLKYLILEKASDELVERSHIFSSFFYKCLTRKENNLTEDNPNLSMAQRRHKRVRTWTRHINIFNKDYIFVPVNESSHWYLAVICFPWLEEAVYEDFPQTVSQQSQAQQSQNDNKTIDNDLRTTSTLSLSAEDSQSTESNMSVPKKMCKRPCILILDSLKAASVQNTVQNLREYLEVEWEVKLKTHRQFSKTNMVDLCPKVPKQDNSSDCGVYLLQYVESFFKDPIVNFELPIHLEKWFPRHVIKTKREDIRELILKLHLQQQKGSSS", "format": "functional"}, "[4]": {"molecular_target": "T3, Sentrin-specific protease 8 (Homo sapiens, UniProt Q96LD8)", "T3 sequence (Q96LD8 whole entry)": "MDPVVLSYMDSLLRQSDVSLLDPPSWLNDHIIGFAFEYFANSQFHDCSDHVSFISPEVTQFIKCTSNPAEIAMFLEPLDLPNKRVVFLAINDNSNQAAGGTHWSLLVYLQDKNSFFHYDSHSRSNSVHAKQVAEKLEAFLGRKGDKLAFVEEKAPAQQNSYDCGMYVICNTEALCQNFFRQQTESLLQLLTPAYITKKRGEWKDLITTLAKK", "format": "functional"}, "[5]": {"molecular_target": "T4, Tyrosyl-DNA phosphodiesterase 2 (Homo sapiens, UniProt O95551)", "T4 sequence (O95551 whole entry)": "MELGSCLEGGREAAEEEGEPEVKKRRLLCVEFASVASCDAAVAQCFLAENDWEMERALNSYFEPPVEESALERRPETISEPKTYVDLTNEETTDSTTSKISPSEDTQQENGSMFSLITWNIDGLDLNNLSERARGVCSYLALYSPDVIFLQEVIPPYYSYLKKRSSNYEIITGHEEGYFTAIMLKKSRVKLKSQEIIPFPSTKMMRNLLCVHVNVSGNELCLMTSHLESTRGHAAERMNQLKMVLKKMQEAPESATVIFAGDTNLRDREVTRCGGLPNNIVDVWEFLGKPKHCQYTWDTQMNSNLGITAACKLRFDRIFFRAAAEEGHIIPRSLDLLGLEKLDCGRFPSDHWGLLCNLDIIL", "test": "potency against TDP2 phosphodiesterase activity – biochemical, epi absorbance, IC50, dose response (AID 743297)"}},
  "note": "The source made the active and inactive calls.",
  "data": [
    {"smiles": "CCOC(=O)C1=C(c2ccc(OC)cc2)C(=O)c2ccccc2C1=O", "values": [
      {"measurement": "EC50", "setting": "Streptococcus", "value": "6.2 µM (active)"}
    ]},
    {"smiles": "COCCCNC(=O)c1ccc2c3c(onc13)-c1ccccc1C2=O", "values": [
      {"measurement": "EC50", "setting": "BJ", "value": "7.47 µM (active)"}
    ]},
    {"smiles": "O=C1C=C(N(CCO)Cc2ccccc2)c2ccccc2C1=O", "values": [
      {"measurement": "EC50", "setting": "[1]", "value": "> 30 µM (not active)"},
      {"measurement": "EC50", "setting": "[2]", "value": "5.31 µM (active)"}
    ]},
    {"smiles": "CCC(=O)OCCNc1cc(Sc2nccn2C)c2nonc2c1[N+](=O)[O-]", "values": [
      {"measurement": "EC50", "setting": "[1]", "value": "1.97 µM (active)"},
      {"measurement": "EC50", "setting": "[2]", "value": "3.62 µM (active)"}
    ]},
    {"smiles": "CCCCn1c(NC(=O)c2ccccc2Cl)c(C#N)c2nc3ccccc3nc21", "values": [
      {"measurement": "IC50", "setting": "Caspase-3", "value": "12.2 µM (active)"},
      {"measurement": "IC50", "setting": "[3]", "value": "2.96 µM (active)"},
      {"measurement": "IC50", "setting": "[4]", "value": "1.99 µM (active)"},
      {"measurement": "IC50", "setting": "[5]", "value": "> 4.76 µM (active)"}
    ]},
    {"smiles": "CCc1ccc(OCC(=O)N/N=C2\\CC(=O)c3ccccc32)cc1", "values": [
      {"measurement": "IC50", "setting": "Caspase-3", "value": "3.7 µM (active)"},
      {"measurement": "IC50", "setting": "[3]", "value": "> 100 µM (inactive)"},
      {"measurement": "IC50", "setting": "[4]", "value": "8.49 µM (active)"}
    ]},
    {"smiles": "O=C1C(=O)c2ccccc2-c2ccccc21", "note": "[9,10-PHENANTHRENEQUINONE]", "values": [
      {"measurement": "EC50", "setting": "BJ", "value": "1.63 µM (inconclusive)"},
      {"measurement": "EC50", "setting": "Streptococcus", "value": "2.3 µM (active)"},
      {"measurement": "IC50", "setting": "[5]", "value": "1.91 µM (active)"}
    ]}
  ]
}
